Data published in patent US9695219B2, “Polypeptide having antibacterial activity and angiogenesis-inducing activity and wound-healing drug containing said polypeptide” (priority 2009, dated 2017).
Where a SMILES comes first, the peptide text is derived from it. [ ]: non-standard residue; d: D form.

Experiments:
cut-wound model, SD rats = experiment: Evaluation of skin tissue in cut wound healing (HE staining); assay type: in vivo, rat; settings: 10 μg dropwise once a day until suture removal, skin collected Day 6
Method: A cut-wound model was produced using 7-week old male SD rats (Crl:CD), and the change in the skin tissue caused by administering the polypeptides of the present invention was evaluated. A cut wound of 30 to 36 mm was made on the back of the rats using a safety razor, and sutured at 3 points equally spaced (Day 0). Onto the suture site, 50 μL of each of the test substances which were respectively adjusted to the concentration of 200 μg/mL was added dropwise (the added amount was 10 μg). Each test substance was administered dropwise once a day till the day when the sutures were removed. On Day 3 after the suturing, the sutures were removed; and, on Day 6, the skin tissue in the cut wound site was collected to evaluate the skin by HE staining

MSSA (clinical strain 1) = experiment: microbe, parasite or virus in culture; assay type: cell-based, Staphylococcus aureus; settings: 37° C. for 20 hours; tested twice, first/second value where not matched
Method: Further, with respect to not only the above-described strains but also various other strains, the “minimum inhibitory concentration (MIC)” was measured as follows. MIC is the lowest concentration of an agent that may inhibit the growth of a bacterium. MIC is used as a parameter for the efficacy of an antibacterial agent, for the strength of bacterial sensitivity, or the like. The bacteria can grow (proliferate) when the concentration is not higher than MIC, and cannot grow when the concentration is higher than MIC. Its measurement is carried out according to a method defined as a standard method by Japanese Society of Chemotherapy or CLINICAL AND LABORATORY […] (CLSI), but, in this Example, its measurement was carried out by a broth microdilution method in accordance with “M100-S17/M7-A7” (Performance Standards for Antimicrobial Susceptibility Testing; Seventeenth Informational Supplement, Vol. 27 No. 1) published by CLSI on January, 2007. That is, sensitivity test of agents was carried out using a microtiter plate or test tubes.
The bacteria were cultured in liquid media for 4 to 6 hours, and thereafter absorbances at A600 were measured. Bacterial suspensions were diluted with Mueller-Hinton broth (MHB) according to McFarland #0.5. Each strain was added so as to attain about 10^5 CFU/ml (final concentration). Each peptide was prepared to an optional concentration, and the solutions were serially diluted from the concentration. The polypeptide at each concentration stage was added to a microplate or test tubes, and the bacterial suspension was added thereto. Chloramphenicol, amphotericin B, ciprofloxacin, meropenem (MEPM), ciprofloxacin (CPFX), tobramycin (TOB) and oxacillin (OX) were used as positive controls. The plate was incubated at 37° C. for 20 hours, and the lowest concentration where bacterial growth was inhibited was regarded as the minimum inhibitory concentration.

[1] = system: Pseudomonas aeruginosa (clinical strain 8); experiment: MIC measurement, broth microdilution; assay type: cell-based; settings: 37° C. for 20 hours; tested twice, first/second value where not matched
[2] = system: Normal human dermal fibroblasts (NHDFs); experiment: Collagen production test; assay type: cell-based; settings: 5-day culture
Method: Normal human dermal fibroblasts (NHDFs) were plated in a 48-well plate. As a medium, Medium 106 containing 1% FBS was used. After culturing in an incubator at 37° C. under 5% CO2 for about 3 hours, the peptide or FGFb (Positive Control), which had been diluted with the medium to each concentration, was added, and the culturing was further continued. The medium was replaced with a medium containing the same additive on Day 3, and the culturing was continued for another 2 days.
The amount of produced collagen was measured by using Semi-Quantitative Collagen Assay Kit.
After the 5-day culture, the medium was removed by aspiration, and the cells were washed with cold PBS(−). Cold methanol/ethanol was added thereto and the plate was left to stand for 10 minutes at room temperature to fix the cells. The cells were washed twice with cold PBS(−). Then, a staining solution (Dye Solution) was added to each well, and the plate was left to stand at room temperature for 30 minutes. The staining solution was removed, and the cells were washed 4-5 times with deionized water. An extraction solution (Dye Extraction Solution) was added to each well to extract the dye, and the absorbances of the extract at 540 nm and 605 nm were measured.
The amounts of collagen and noncollagen proteins were calculated according to the following equation. […]

[3] = system: human vascular endothelial cells and fibroblast cells; experiment: Lumen formation test, areas of formed lumina (Angiogenesis Kit KZ-1000); assay type: cell-based; settings: 0.5, 2.5 and 10 μg/mL, Day 11 of culture
Method: Then, in order to examine the angiogenesis activity of these, lumen formation by the polypeptides was evaluated using an angiogenesis kit available from KURABO […] LTD. (Product No.: KZ-1000). Vascular endothelial growth factor (VEGF) as a positive control, and polypeptide-free, unstimulated group as a negative control, were used.
Using a special medium for angiogenesis which was attached to the kit, each polypeptide was prepared such that the concentration thereof was respectively 0.5, 2.5 and 10 μg/mL. To a 24-well plate in which cells were plated (the cells were those obtained by co-culturing human vascular endothelial cells and fibroblast cells at an optimum concentration) which was attached to the kit, the special medium for angiogenesis containing each polypeptide was added, and the cells were cultured at 37° C. under 5% CO2. The medium was replaced with a medium containing the same additive on Day 4, Day 7 and Day 9 of culture. […]
Each of the obtained images was quantified using an angiogenesis quantification software. The areas of formed lumina observed in each visual field were measured on the basis of the scale of an angiogenesis quantification software available from KURABO […] […] (angiogenesis quantification software Ver 1.0), and evaluated on the basis of the ratio of the areas of polypeptide-containing groups relative to the area of the negative control group.

## CC[C@H](C)[C@H](NC(=O)[C@H](CC(C)C)NC(=O)[C@H](CCCCN)NC(=O)[C@@H](N)CC(C)C)C(=O)N[C@@H](Cc1ccccc1)C(=O)N[C@@H](CC(C)C)C(=O)N[C@@H](Cc1c[nH]cn1)C(=O)N[C@@H](CCCNC(=N)N)C(=O)N[C@@H](CC(C)C)C(=O)N[C@@H](CCCCN)C(=O)N[C@@H](CCCNC(=N)N)C(=O)N[C@@H](CCSC)C(=O)N[C@@H](CCCNC(=N)N)C(=O)N[C@@H](CCCCN)C(=O)N[C@@H](CCCNC(=N)N)C(=O)N[C@@H](CC(C)C)C(=O)N[C@H](CCCCN)C(=O)N[C@@H](CCCNC(=N)N)C(=O)N[C@@H](CCCCN)C(N)=O [SR-08] (H-LKLIFLHRLKRMRKRL[dK]RK-NH2; N-terminus assumed)
cut-wound model, SD rats
  Granulation and collagen at cut wound site (HE staining): increased compared to Saline
  Thickening in stratum spinosum epidermidis (HE staining): less than the saline group
MSSA (clinical strain 1)
  MIC, MSSA (clinical strain 1): 16/32
[1]
  MIC, Pseudomonas aeruginosa (clinical strain 8): 16/32
[2]
  Collagen production of fibroblasts (FIG. 2): had an effect to induce collagen production of the fibroblasts
[3]
  Ability to form lumen (areas of formed lumina relative to negative control, FIG. 1): showed an ability to form lumen at the tested concentrations
